Experimental data as given in paper PMC12446476 (Nature Communications, 2025).
Converted amounts (≈) assume the structure as drawn. “And” between values parts separate entries of the source, which are not always exact repeats. Identical values can stand only once. Like-named read-outs stand apart in the source and are kept apart here.

What was measured:
[1] = system: Salmonella typhimurium (TA1535, TA1537, TA98 and TA100); assay type: cell-based
Experimental: (§1) Ames assays were performed using four strains of Salmonella typhimurium (TA1535, TA1537, TA98 and TA100) and a single strain of E. coli (WRP2 uvrA) in the presence and absence of S9 tissue homogenate. Dose levels (µg/plate) up to 4000 were assessed for WP2 uvrA and TA98, 500 for TA1535, 250 for TA1537 and 62.5 for TA100.

E. coli WP2 uvrA = test: Ames assay, E. coli strain; assay type: cell-based; details: with S9, positive control 1, 2 or 20 µg/plate
Experimental: as §1

N. gonorrhoeae [2] = test: In vitro selection of mutants with reduced susceptibility; assay type: cell-based, Neisseria gonorrhoeae
Experimental: N. gonorrhoeae strains were grown overnight on chocolate agar plates, as described above. […] Plates were incubated at 35 ± 2 °C in a humid 5% CO2–enriched atmosphere for 48–72 h.

human lymphocytes = test: In vitro micronucleus test; assay type: cell-based; details: for Micronucleated cells: 1000 scored cells
N. gonorrhoeae [3] = test: MIC determination, agar dilution (CLSI); assay type: cell-based, Neisseria gonorrhoeae; details: for MIC: Neisseria gonorrhoeae, read-out: Minimum inhibitory concentration; for NgMIC50: screening panel of 14 N. gonorrhoeae isolates
Source text: The 2024 WHO N. gonorrhoeae reference strains were used for quality control. Only whole MIC doubling dilutions are reported. Clinical breakpoints or the epidemiological cutoff (ECOFF, to indicate azithromycin resistance) from EUCAST (v14.0, https://www.eucast.org/clinical_breakpoints) were used to classify isolates as antimicrobial susceptible or resistant. […] Two times the standard inoculum defined by CLSI was used to establish consistent growth in untreated control samples for some strains. In vitro time-kill assays were performed according to CLSI guidelines[65] using Columbia Broth (BD Difco) supplemented with 1% IsoVitaleX Enrichment (BD). Viable bacterial counts were generated by plating 10-fold serially diluted samples on GC agar plates containing 1% IsoVitaleX Enrichment (BD).

[4] = target: recombinant NgFabI protein (Neisseria gonorrhoeae, UniProt A0ACH0F547); test: biochemical
recombinant NgFabI protein, sequence (A0ACH0F547 entry or part of it): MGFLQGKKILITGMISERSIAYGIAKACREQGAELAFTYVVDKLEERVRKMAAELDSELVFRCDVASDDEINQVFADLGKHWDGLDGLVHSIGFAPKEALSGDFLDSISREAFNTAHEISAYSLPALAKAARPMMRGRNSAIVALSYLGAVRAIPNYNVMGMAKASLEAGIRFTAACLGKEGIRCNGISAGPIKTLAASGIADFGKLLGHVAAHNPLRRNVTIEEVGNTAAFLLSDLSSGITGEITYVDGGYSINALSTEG
Experimental: FabI activity was monitored by measuring NADH consumption. […] To initiate reactions, 50 µM NADH was added, and absorbance was monitored at 340 nm every 12 s for a total of 40 min using a Spectramax Plus 384 plate reader (Molecular Devices) at a controlled temperature of 30 °C. Data were analysed using the XLfit Microsoft Excel plugin (version 5.5). IC50 values were determined using a logistic sigmoid curve-fitting of the inhibitor dose response curves.

S. aureus ATCC 29213 = test: S. aureus neutropenic murine thigh infection model; assay type: in vivo, mouse; details: ICR mice, 100 mg/kg PO, TID, 48h; 100 mg/kg
Experimental: The S. aureus neutropenic murine thigh infection model was performed in accordance with the Guide for Care and Use of Laboratory Animals[75]. Animal rooms were maintained at a temperature range of 20–24 °C and humidity between 30% and 70%, with 12 h light/dark cycles. Female ICR mice (BioLASCO Taiwan Co., Ltd.) were rendered neutropenic via IP injection of cyclophosphamide four days before infection (150 mg/kg) and again one day before infection (100 mg/kg). Animals were anaesthetised with isoflurane (3–5%), then inoculated intramuscularly with S. aureus ATCC 29213 (~1 × 10^5 CFU/mouse). […] Animals were sacrificed via CO2 asphyxiation at either 2 h (baseline), 26 and/or 50 h post-infection. Thigh tissues were harvested and homogenised in 3 mL sterile PBS (pH 7.4). Bacterial burdens were determined by performing 10-fold serial dilutions and plating on nutrient agar plates.

HepG2 cells = test: HepG2 cytotoxicity (CytoTox-ONE membrane integrity); assay type: cell-based, human; details: 24 h
Experimental: (§2) HepG2 cells (HB-8065; ATCC) cultured in DMEM (Gibco) with 5% fetal bovine serum (heat-inactivated, Sigma-Aldrich) and 1% penicillin-streptomycin (ThermoFisher), were seeded in 96-well plates (3.0 × 10^4 per well) and incubated at 37 °C and 5% CO2. […] Each treatment was assessed in triplicate. Cytotoxicity was determined using CytoTox-ONE^TM Homogenous Membrane Integrity Assay kits (Promega), and cell viability was determined using CellTiter-Glo® Luminescent Cell Viability Assay kits (Promega), each according to the manufacturer’s specifications.

[5] = HepG2 cell viability (CellTiter-Glo); assay type: cell-based; details: human, HepG2 cells, read-out: Cell viability, Mean (n=3)
Experimental: as §2

[6] = TA98, with S9, positive control 1, 2 or 20 µg/plate
[7] = TA100, with S9, positive control 1, 2 or 20 µg/plate
[8] = TA1535, with S9, positive control 1, 2 or 20 µg/plate
[9] = TA1537, with S9, positive control 1, 2 or 20 µg/plate
[10] = Suppl. Table 4, 31 h treatment, without S9, 31 h sampling, 0.08 µg/mL
[11] = Suppl. Table 5, 31 h treatment, without S9, 31 h sampling, 0.04 µg/mL
[12] = screening panel N. gonorrhoeae isolate A
[13] = screening panel N. gonorrhoeae isolate B
[14] = screening panel N. gonorrhoeae isolate C
[15] = screening panel N. gonorrhoeae isolate D
[16] = screening panel N. gonorrhoeae isolate E
[17] = screening panel N. gonorrhoeae isolate F
[18] = screening panel N. gonorrhoeae isolate G
[19] = screening panel N. gonorrhoeae isolate H
[20] = screening panel N. gonorrhoeae isolate I
[21] = screening panel N. gonorrhoeae isolate J
[22] = screening panel N. gonorrhoeae isolate K
[23] = screening panel N. gonorrhoeae isolate L
[24] = screening panel N. gonorrhoeae isolate M
[25] = screening panel N. gonorrhoeae isolate N
[26] = Suppl. Table 4, 3 h treatment, with S9, 32 h sampling, 15 µg/mL
[27] = Suppl. Table 5, 3 h treatment, with S9, 32.5 h sampling, 20 µg/mL

SMILES: Nc1ccc2cc3ccccc3cc2c1 [2-Aminoanthracene, reference compound]
- Ames bacterial mutation assessment, Mean [1, 6]: 515
- Colony count [1, 6]: 486 and 532 and 526
- Ames bacterial mutation assessment, Mean [1, 7]: 1256
- Colony count [1, 7]: 1316 and 1188 and 1256
- Ames bacterial mutation assessment, Mean [1, 8]: 104
- Colony count [1, 8]: 93 and 104 and 116
- Ames bacterial mutation assessment, Mean [1, 9]: 95
- Colony count [1, 9]: 90 and 94 and 102
- Ames bacterial mutation assessment, Mean (E. coli WP2 uvrA): 187
- Colony count (E. coli WP2 uvrA): 181 and 184 and 195

SMILES: O=C(O)c1cn(C2CC2)c2cc(N3CCNCC3)c(F)cc2c1=O [Ciprofloxacin, reference compound]
- Mutants (colonies) (N. gonorrhoeae [2]; 6926, 4x MIC): 4
- Mutants (colonies) (N. gonorrhoeae [2]; 6926, 8x MIC): 5
- Mutants (colonies) (N. gonorrhoeae [2]; 6926, 16x MIC): 1
- Mutants (colonies) (N. gonorrhoeae [2]; ATCC 700825, 4x MIC): 1
- Mutants (colonies) (N. gonorrhoeae [2]; ATCC 700825, 8x MIC): 0
- Mutants (colonies) (N. gonorrhoeae [2]; ATCC 700825, 16x MIC): 0

SMILES: COc1cc2c(c(OC)c1OC)-c1ccc(OC)c(=O)cc1[C@@H](NC(C)=O)CC2 [Colchicine]
- Incidence of micronucleated cells (human lymphocytes; -S9, treatment 31 h, harvest 31 h, positive control 0.04 µg/mL (Debio 1453 study)): 1.85%
- Incidence of micronucleated cells (human lymphocytes; -S9, treatment 31 h, harvest 31 h, positive control 0.08 µg/mL (Debio 1453P study)): 3.35%
- Micronucleated cell percentage (human lymphocytes; [10]): 3.35%
- Micronucleated cells (human lymphocytes; [10]): 33 and 34
- Micronucleated cell percentage (human lymphocytes; [11]): 1.85%
- Micronucleated cells (human lymphocytes; [11]): 19 and 18

SMILES: Cc1c(CN(C)C(=O)/C=C/c2cnc3c(c2)NCCC(=O)N3)oc2ccccc12 [Compound 1]
- MIC (N. gonorrhoeae [3]; [12]): 0.25 µg/mL (≈ 0.64 µM)
- MIC (N. gonorrhoeae [3]; [13]): 0.125 µg/mL (≈ 0.32 µM)
- MIC (N. gonorrhoeae [3]; [14]): 0.125 µg/mL (≈ 0.32 µM)
- MIC (N. gonorrhoeae [3]; [15]): 0.25 µg/mL (≈ 0.64 µM)
- MIC (N. gonorrhoeae [3]; [16]): 0.125 µg/mL (≈ 0.32 µM)
- MIC (N. gonorrhoeae [3]; [17]): 0.25 µg/mL (≈ 0.64 µM)
- MIC (N. gonorrhoeae [3]; [18]): 0.5 µg/mL (≈ 1.28 µM)
- MIC (N. gonorrhoeae [3]; [19]): 0.25 µg/mL (≈ 0.64 µM)
- MIC (N. gonorrhoeae [3]; [20]): 0.125 µg/mL (≈ 0.32 µM)
- MIC (N. gonorrhoeae [3]; [21]): 0.25 µg/mL (≈ 0.64 µM)
- MIC (N. gonorrhoeae [3]; [22]): 0.5 µg/mL (≈ 1.28 µM)
- MIC (N. gonorrhoeae [3]; [23]): 0.25 µg/mL (≈ 0.64 µM)
- MIC (N. gonorrhoeae [3]; [24]): 0.125 µg/mL (≈ 0.32 µM)
- MIC (N. gonorrhoeae [3]; [25]): 0.125 µg/mL (≈ 0.32 µM)
- NgMIC50 (N. gonorrhoeae [3]): 0.25 µg/mL
- IC50 [4]: 6 nM

SMILES: Cc1c(CN(C)C(=O)/C=C/c2cnc3c(c2)N[C@H](C)CC(=O)N3)oc2ccccc12 [Compound 2]
- MIC (N. gonorrhoeae [3]; [12]): 0.25 µg/mL (≈ 0.618 µM)
- MIC (N. gonorrhoeae [3]; [13]): 0.125 µg/mL (≈ 0.309 µM)
- MIC (N. gonorrhoeae [3]; [14]): 0.125 µg/mL (≈ 0.309 µM)
- MIC (N. gonorrhoeae [3]; [15]): 0.125 µg/mL (≈ 0.309 µM)
- MIC (N. gonorrhoeae [3]; [16]): 0.06 µg/mL (≈ 0.148 µM)
- MIC (N. gonorrhoeae [3]; [17]): 0.25 µg/mL (≈ 0.618 µM)
- MIC (N. gonorrhoeae [3]; [18]): 0.25 µg/mL (≈ 0.618 µM)
- MIC (N. gonorrhoeae [3]; [19]): 0.125 µg/mL (≈ 0.309 µM)
- MIC (N. gonorrhoeae [3]; [20]): 0.125 µg/mL (≈ 0.309 µM)
- MIC (N. gonorrhoeae [3]; [21]): 0.125 µg/mL (≈ 0.309 µM)
- MIC (N. gonorrhoeae [3]; [22]): 0.5 µg/mL (≈ 1.24 µM)
- MIC (N. gonorrhoeae [3]; [23]): 0.125 µg/mL (≈ 0.309 µM)
- MIC (N. gonorrhoeae [3]; [24]): 0.125 µg/mL (≈ 0.309 µM)
- MIC (N. gonorrhoeae [3]; [25]): 0.125 µg/mL (≈ 0.309 µM)
- NgMIC50 (N. gonorrhoeae [3]): 0.125 µg/mL
- IC50 [4]: 2.4 nM

SMILES: Cc1c(CN(C)C(=O)/C=C/c2cnc3c(c2)N[C@@H](C)CC(=O)N3)oc2ccccc12 [Compound 6]
- Minimum inhibitory concentration (N. gonorrhoeae [3]; [12]): 1 µg/mL (≈ 2.47 µM)
- Minimum inhibitory concentration (N. gonorrhoeae [3]; [13]): 0.5 µg/mL (≈ 1.24 µM)
- Minimum inhibitory concentration (N. gonorrhoeae [3]; [14]): 0.5 µg/mL (≈ 1.24 µM)
- Minimum inhibitory concentration (N. gonorrhoeae [3]; [15]): 0.5 µg/mL (≈ 1.24 µM)
- Minimum inhibitory concentration (N. gonorrhoeae [3]; [16]): 0.5 µg/mL (≈ 1.24 µM)
- Minimum inhibitory concentration (N. gonorrhoeae [3]; [17]): 1 µg/mL (≈ 2.47 µM)
- Minimum inhibitory concentration (N. gonorrhoeae [3]; [18]): 1 µg/mL (≈ 2.47 µM)
- Minimum inhibitory concentration (N. gonorrhoeae [3]; [19]): 1 µg/mL (≈ 2.47 µM)
- Minimum inhibitory concentration (N. gonorrhoeae [3]; [20]): 0.5 µg/mL (≈ 1.24 µM)
- Minimum inhibitory concentration (N. gonorrhoeae [3]; [21]): 1 µg/mL (≈ 2.47 µM)
- Minimum inhibitory concentration (N. gonorrhoeae [3]; [22]): 2 µg/mL (≈ 4.94 µM)
- Minimum inhibitory concentration (N. gonorrhoeae [3]; [23]): 0.5 µg/mL (≈ 1.24 µM)
- Minimum inhibitory concentration (N. gonorrhoeae [3]; [24]): 0.5 µg/mL (≈ 1.24 µM)
- Minimum inhibitory concentration (N. gonorrhoeae [3]; [25]): 0.5 µg/mL (≈ 1.24 µM)
- IC50 [4]: 14 nM
- fold less potent than its enantiomer compound 2 (NgFabI IC50) [4]: 5 fold

SMILES: O=P1(N(CCCl)CCCl)NCCCO1 (stereo not drawn) [Cyclophosphamide]
- Incidence of micronucleated cells (human lymphocytes; +S9, treatment 3 h, harvest 32 h, positive control 15 µg/mL (Debio 1453P study)): 3.00%
- Incidence of micronucleated cells (human lymphocytes; +S9, treatment 3 h, harvest 32.5 h, positive control 20 µg/mL (Debio 1453 study)): 7.15%
- Micronucleated cell percentage (human lymphocytes; [26]): 3.00%
- Micronucleated cells (human lymphocytes; [26]): 21 and 39
- Micronucleated cell percentage (human lymphocytes; [27]): 7.15%
- Micronucleated cells (human lymphocytes; [27]): 78 and 65

SMILES: CC(=O)NC[C@H]1CN(c2ccc(N3CCOCC3)c(F)c2)C(=O)O1 [Linezolid, reference compound]
- CFU per thigh (S. aureus ATCC 29213): 930 CFU per thigh and 510 CFU per thigh and 570 CFU per thigh and 750 CFU per thigh and 720 CFU per thigh
- Log10(CFU/Thigh) (S. aureus ATCC 29213): 2.968 Log10(CFU/Thigh) and 2.708 Log10(CFU/Thigh) and 2.756 Log10(CFU/Thigh) and 2.875 Log10(CFU/Thigh) and 2.857 Log10(CFU/Thigh)

SMILES: CN(C)CCCN1c2ccccc2Sc2ccc(Cl)cc21 [chlorpromazine]
- Cytotoxicity, Mean (n=3) (HepG2 cells; 5 µM): 5%
- Cytotoxicity, Mean (n=3) (HepG2 cells; 50 µM): 33%
- Cytotoxicity, Mean (n=3) (HepG2 cells; 250 µM): 29%
- viability at 24 h, 5 µM ([5]; 5 µM): 101%
- viability at 24 h, 50 µM ([5]; 50 µM): 1%
- viability at 24 h, 250 µM ([5]; 250 µM): 0%
